Source: patent publication US9686971B2, “Methods for testing anti-thrombotic agents” (The Trustees of Columbia University in the City of New York, priority 2006, dated 2017)

Experiments:
[1] = target: T1, murine αIIbβ3 (Mus musculus, UniProt O54890+Q9QUM0); conditions: cited from earlier work
T1 sequence (Q9QUM0 32-1033): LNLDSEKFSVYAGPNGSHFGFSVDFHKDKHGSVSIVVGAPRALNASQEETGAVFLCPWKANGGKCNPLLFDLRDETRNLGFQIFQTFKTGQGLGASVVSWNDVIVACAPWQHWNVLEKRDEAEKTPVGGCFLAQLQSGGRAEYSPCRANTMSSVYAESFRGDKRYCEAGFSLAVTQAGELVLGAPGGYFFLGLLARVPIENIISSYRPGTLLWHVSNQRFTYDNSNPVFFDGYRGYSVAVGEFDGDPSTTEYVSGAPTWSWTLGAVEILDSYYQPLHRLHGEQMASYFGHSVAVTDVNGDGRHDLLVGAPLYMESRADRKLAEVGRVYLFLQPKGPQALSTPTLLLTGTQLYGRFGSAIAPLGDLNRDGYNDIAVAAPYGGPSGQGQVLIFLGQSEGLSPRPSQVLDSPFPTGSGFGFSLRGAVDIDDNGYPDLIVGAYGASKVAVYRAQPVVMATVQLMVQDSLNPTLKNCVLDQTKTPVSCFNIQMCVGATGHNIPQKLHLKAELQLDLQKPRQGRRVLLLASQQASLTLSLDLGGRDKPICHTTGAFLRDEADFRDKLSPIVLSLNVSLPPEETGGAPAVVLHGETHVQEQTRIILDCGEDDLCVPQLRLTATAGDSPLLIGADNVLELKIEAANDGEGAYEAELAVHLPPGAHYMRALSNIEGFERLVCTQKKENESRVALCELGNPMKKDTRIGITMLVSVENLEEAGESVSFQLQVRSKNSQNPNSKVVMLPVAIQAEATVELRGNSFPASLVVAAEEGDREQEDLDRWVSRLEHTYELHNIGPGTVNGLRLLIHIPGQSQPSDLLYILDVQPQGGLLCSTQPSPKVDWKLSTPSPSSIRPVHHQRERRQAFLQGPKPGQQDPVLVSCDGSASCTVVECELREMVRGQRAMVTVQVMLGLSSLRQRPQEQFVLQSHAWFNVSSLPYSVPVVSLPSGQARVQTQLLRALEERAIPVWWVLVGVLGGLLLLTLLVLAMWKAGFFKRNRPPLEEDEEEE
T1 sequence (O54890 26-787): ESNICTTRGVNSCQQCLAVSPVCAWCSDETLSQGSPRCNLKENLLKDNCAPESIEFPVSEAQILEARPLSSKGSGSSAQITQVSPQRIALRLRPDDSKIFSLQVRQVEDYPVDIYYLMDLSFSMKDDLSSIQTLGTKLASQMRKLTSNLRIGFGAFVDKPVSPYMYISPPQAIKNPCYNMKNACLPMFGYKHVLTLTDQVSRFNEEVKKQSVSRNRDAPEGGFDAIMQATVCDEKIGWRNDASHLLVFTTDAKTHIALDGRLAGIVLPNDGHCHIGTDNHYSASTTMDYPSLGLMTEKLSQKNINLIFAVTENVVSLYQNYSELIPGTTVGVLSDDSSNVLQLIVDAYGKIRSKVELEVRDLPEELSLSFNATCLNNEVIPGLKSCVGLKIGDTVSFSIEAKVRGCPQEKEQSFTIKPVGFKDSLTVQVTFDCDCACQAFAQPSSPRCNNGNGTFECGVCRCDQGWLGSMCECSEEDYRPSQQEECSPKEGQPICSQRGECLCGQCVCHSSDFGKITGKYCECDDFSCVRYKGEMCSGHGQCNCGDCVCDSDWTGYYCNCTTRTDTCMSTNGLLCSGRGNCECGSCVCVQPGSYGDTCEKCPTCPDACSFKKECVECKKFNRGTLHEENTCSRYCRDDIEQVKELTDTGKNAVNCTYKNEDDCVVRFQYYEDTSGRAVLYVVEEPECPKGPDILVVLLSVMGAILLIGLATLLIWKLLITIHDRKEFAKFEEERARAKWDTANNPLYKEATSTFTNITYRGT

[2] = tested on: human platelets; assay: Tail bleeding assay, human platelet-induced hemostasis in homozygous VWF^1326R>H mice; format: in vivo, mouse; conditions: for human platelet-induced hemostatic clot / plug formation (words): PLAVIX 50 mg/kg oral day before and 2 h prior, ReoPro 0.25 mg/kg iv bolus then 0.125 μg/kg/min, 5 min after human platelets
Method: This assay provides an indirect measure of the ability of platelets and VWF to support hemostasis by interacting with the injured vessel wall. It also indirectly determines the function of multiple receptors and ligands on platelets that are required to form a hemostatic plug. […] It is performed by immersing the severed tip (10 mm) of the animal's tail in isotonic saline at 37° C. and monitoring the length of time required for bleeding to cease. Homozygous mutant mice will be infused with an equal volume of either saline or purified human platelets. Platelet specific antibodies or drugs will be administered as described above and their ability to prolong bleeding time evaluated. All experiments will be stopped at 10 min by cauterizing the tail (51).
Tail cuts were performed 5 min after completion of the infusion of platelets. PLAVIX and ReoPro® were obtained from the research pharmacy at CUMC. For studies involving PLAVIX, animals received a 50 mg/kg oral dose of the drug the day before and 2 h prior to the administration of human platelets.

## abciximab: Fab fragment of the chimeric human-mouse monoclonal antibody 7E3, which blocks the function of αIIbβ3 on human platelets
[1]
  binding / function of murine αIIbβ3: does not bind or disrupt the function of murine αIIbβ3
[2]
  human platelet-induced hemostatic clot / plug formation (words): completely disrupted
[2]; listed as ReoPro
  human platelet-induced hemostatic clot / plug formation (words): prevented the formation of a hemostatic plug
[2]; homozygous VWF^1326R>H mice, given after infusion of human platelets
  mean bleeding time: 579 s
